{
  "source": "paper PMC1500806",
  "about": "“Carrageenan Is a Potent Inhibitor of Papillomavirus Infection” (PLoS Pathogens, 2006)",
  "note": "Positions of bridges follow the written chain, without caps; N, C: chain ends. Non-standard residues stand in square brackets, D forms with d. Residues, ends and D or L forms follow the SMILES beside them. *: point of attachment. Ileψ(thiazoline)Cys = CC[C@H](C)[C@H](N)C1=N[C@H](C(=O)*)CS1; dOrn = NCCC[C@@H](N)C(=O)O",
  "data": [
    {"system": "HeLa cells", "test": "Cytotoxicity (WST-1 turnover and/or cell morphology)", "format": "cell-based", "settings": "not given", "procedure": "(§1) Compounds were tested using a previously described PsV-based papillomavirus inhibition assay. Briefly, HeLa cells were plated at 6,000 cells/well in 50 μl of medium in 96-well plates. Candidate inhibitors were dissolved at 1–10 mg/ml (or reconstituted as directed by manufacturer) in sterile water or appropriate solvent, then subjected to a ten-point three-fold serial dilution covering an appropriate concentration range. Diluted candidate inhibitor (50 μl) was added to preplated HeLa cells, followed by 50 μl of diluted PsV stock. The cells were incubated for 24 h, fed by addition of 100 μl of DMEM-10, then subjected to flow cytometric analysis 48–56 h after infection. IC50 values and 95% CI were determined using Prism (GraphPad Software, San Diego, California, United States) to calculate a variable slope sigmoidal dose-response curve.\n(§2) Cytotoxicity was defined as a >50% reduction in the net turnover of the metabolic substrate WST-1 (Roche, Indianapolis, Indiana, United States) and/or by the appearance of dramatic alterations in the microscopic appearance of cell morphology at the time of harvest.", "values": [
      {"molecule": "OCCS", "note": "[2-Mercaptoethanol]", "Cytotoxicity": ">100 µg/mL"},
      {"molecule": "CCCCCCCCCCCCOS(=O)(=O)[O-].[Na+]", "note": "[Sodium dodecyl sulfate]", "Cytotoxicity": "333 µg/mL"},
      {"molecule": "C[C@@H]1[C@H](O)[C@@H](C)/C=C/C=C/CC/C=C/C=C/C=C/C=C/C(O[C@H]2O[C@H](C)[C@@H](O)[C@H](N)[C@@H]2O)CC2O[C@](O)(CC(O)C(O)CCC(O)CC(O)CC(O)CC(=O)O[C@H]1C)CC(O)C2C(=O)O", "note": "(stereo partly shown) [Nystatin]", "Cytotoxicity": "100 µg/mL"},
      {"molecule": "O=C(O)c1cc(SSc2ccc([N+](=O)[O-])c(C(=O)O)c2)ccc1[N+](=O)[O-]", "note": "[Ellman's reagent]", "Cytotoxicity": "1,300 μg/ml"},
      {"molecule": "O[C@@H](CS)[C@@H](O)CS", "note": "[Dithiothreotol]", "Cytotoxicity": ">100 µg/mL"},
      {"molecule": "Cl.N=C(N)N", "note": "[Guanidine hydrochloride]", "Cytotoxicity": ">475 µg/mL"}
    ]},
    {"system": "HeLa cells", "test": "Cytotoxicity (WST-1 turnover and/or cell morphology)", "format": "cell-based", "settings": ">50% reduction in WST-1 turnover and/or altered cell morphology", "procedure": "as §1, §2", "units": {"Cytotoxicity": "µg/mL"}, "values": [
      {"molecule": "Gramicidins A-D [Gramicidins A-D (B. Brevis)]", "Cytotoxicity": 1.2},
      {"molecule": "Poly-(arginine-aminocaproyl)", "Cytotoxicity": ">100"},
      {"molecule": "O=[N+]([O-])c1ccc(Cl)c([N+](=O)[O-])c1", "note": "[1-Chloro-2,4-dinitrobenzene (DNCB), 1-Chloro-2,4-dinitrobenzene]", "Cytotoxicity": 7},
      {"molecule": "Gelatin", "Cytotoxicity": ">100"}
    ]},
    {"system": "HeLa cells", "test": "Cytotoxicity (WST-1 turnover and/or cell morphology)", "format": "cell-based", "settings": "human", "procedure": "as §1, §2", "units": {"Cytotoxicity": "µg/mL"}, "values": [
      {"molecule": "CCCCS(=N)(=O)CCC(N)C(=O)O", "note": "(stereo not shown) [Buthionine sulfoximine (BSO), Buthionine sulfoximine]", "Cytotoxicity": ">7"}
    ]},
    {"system": "not listed separately", "test": "Cytotoxicity (WST-1 turnover and/or cell morphology)", "format": "cell-based", "settings": "human, HeLa cells; >50% reduction in WST-1 turnover and/or altered cell morphology", "procedure": "as §1, §2", "units": {"CC50": "µg/mL"}, "values": [
      {"molecule": "CC[C@H](C)[C@H](NC(=O)CN)C(=O)NCC(=O)N[C@@H](C)C(=O)N[C@H](C(=O)N[C@@H](CC(C)C)C(=O)N[C@@H](CCCCN)C(=O)N[C@H](C(=O)N[C@@H](CC(C)C)C(=O)N[C@H](C(=O)N[C@H](C(=O)NCC(=O)N[C@@H](CC(C)C)C(=O)N1CCC[C@H]1C(=O)N[C@@H](C)C(=O)N[C@@H](CC(C)C)C(=O)N[C@H](C(=O)N[C@@H](CO)C(=O)N[C@@H](Cc1c[nH]c2ccccc12)C(=O)N[C@H](C(=O)N[C@@H](CCCCN)C(=O)N[C@@H](CCCNC(=N)N)C(=O)N[C@@H](CCCCN)C(=O)N[C@@H](CCCNC(=N)N)C(=O)N[C@@H](CCC(N)=O)C(=O)N[C@@H](CCC(N)=O)C(N)=O)[C@@H](C)CC)[C@@H](C)CC)[C@@H](C)O)[C@@H](C)O)C(C)C)C(C)C", "note": "[Melittin]", "CC50": 4},
      {"molecule": "CSCC[C@H](NC(=O)[C@H](CCCNC(=N)N)NC(=O)[C@H](Cc1c[nH]c2ccccc12)NC(=O)[C@H](CCC(N)=O)NC(=O)[C@H](Cc1c[nH]c2ccccc12)NC(=O)[C@H](CCCNC(=N)N)NC(=O)[C@@H](N)CCCNC(=N)N)C(=O)N[C@@H](CCCCN)C(=O)N[C@@H](CCCCN)C(=O)N[C@@H](CC(C)C)C(=O)NCC(=O)O", "note": "[Lactoferricin B 4–14 fragment] (H-RRWQWRMKKLG-OH; N-terminus and C-terminus assumed)", "CC50": "> 15"},
      {"molecule": "CC(C)C[C@H](NC(=O)[C@H](C)NC(=O)[C@H](CCCCN)NC(=O)[C@H](CCCCN)NC(=O)[C@H](CC(C)C)NC(=O)[C@H](C)NC(=O)[C@H](CCCCN)NC(=O)[C@H](CCCCN)NC(=O)[C@H](CC(C)C)NC(=O)[C@H](CCCCN)NC(=O)[C@H](CCCCN)NC(=O)[C@H](CC(C)C)NC(=O)[C@H](C)NC(=O)[C@H](CCCCN)NC(=O)[C@H](CCCCN)NC(=O)[C@H](CC(C)C)NC(=O)[C@H](C)NC(=O)[C@H](CCCCN)NC(=O)[C@H](CC(C)C)NC(=O)[C@H](C)NC(=O)[C@H](CC(C)C)NC(=O)[C@H](C)NC(=O)[C@@H](N)Cc1ccccc1)C(=O)O", "note": "[Hecate] (H-FALALKALKKALKKLKKALKKAL-OH; N-terminus and C-terminus assumed)", "CC50": 17},
      {"molecule": "CC[C@H](C)[C@H](NC(=O)CNC(=O)[C@H](CC(=O)O)NC(=O)[C@H](CCCNC(=N)N)NC(=O)[C@@H](NC(=O)[C@H](CC(N)=O)NC(=O)[C@H](CCC(N)=O)NC(=O)CNC(=O)[C@@H](NC(=O)[C@H](CCCCN)NC(=O)[C@H](CCC(=O)O)NC(=O)[C@@H](NC(=O)[C@H](CCCCN)NC(=O)[C@H](CCCCN)NC(=O)[C@H](Cc1ccccc1)NC(=O)[C@H](CC(C)C)NC(=O)[C@H](CCCCN)NC(=O)[C@H](Cc1c[nH]c2ccccc12)NC(=O)[C@@H](N)CCCCN)[C@@H](C)CC)C(C)C)[C@@H](C)CC)C(=O)N[C@H](C(=O)N[C@@H](CCCCN)C(=O)N[C@@H](C)C(=O)NCC(=O)N1CCC[C@H]1C(=O)N[C@@H](C)C(=O)N[C@H](C(=O)N[C@@H](C)C(=O)N[C@H](C(=O)N[C@H](C(=O)NCC(=O)N[C@@H](CCC(N)=O)C(=O)N[C@@H](C)C(=O)N[C@H](C(=O)N[C@@H](CCC(N)=O)C(=O)N[C@H](C(=O)N[C@@H](C)C(=O)N[C@@H](CCCCN)C(N)=O)[C@@H](C)CC)[C@@H](C)O)C(C)C)C(C)C)C(C)C)[C@@H](C)CC", "note": "[Cecropin A (porcine)] (H-KWKLFKKIEKVGQNIRDGIIKAGPAVAVVGQATQIAK-NH2; N-terminus and C-terminus assumed)", "CC50": "> 100"},
      {"molecule": "CC[C@H](C)[C@H](NC(=O)[C@H](CCCCN)NC(=O)[C@H](CCCCN)NC(=O)[C@H](Cc1ccccc1)NC(=O)[C@H](CC(C)C)NC(=O)[C@H](CCCCN)NC(=O)[C@H](Cc1c[nH]c2ccccc12)NC(=O)[C@@H](N)CCCCN)C(=O)NCC(=O)N[C@@H](C)C(=O)N[C@H](C(=O)N[C@@H](CC(C)C)C(=O)N[C@@H](CCCCN)C(=O)N[C@H](C(=O)N[C@@H](CC(C)C)C(N)=O)C(C)C)C(C)C", "note": "[Cecropin A-Mellitin hybrid] (H-KWKLFKKIGAVLKVL-NH2; N-terminus and C-terminus assumed)", "CC50": 11},
      {"molecule": "CC[C@H](C)[C@H](N)C1=N[C@H](C(=O)N[C@@H](CC(C)C)C(=O)N[C@H](CCC(=O)O)C(=O)N[C@H](C(=O)N[C@H]2CCCCNC(=O)[C@H](CC(N)=O)NC(=O)[C@@H](CC(=O)O)NC(=O)[C@H](Cc3cnc[nH]3)NC(=O)[C@@H](Cc3ccccc3)NC(=O)[C@H]([C@@H](C)CC)NC(=O)[C@@H](CCCN)NC2=O)[C@@H](C)CC)CS1", "note": "[Bacitracin] ({Ileψ(thiazoline)Cys}-L[dE]IK[dOrn]I[dF]H[dD]N; lactam 4-C (inferred))", "CC50": "> 420"},
      {"molecule": "N=C(N)NCCC[C@H](NC(=O)[C@H](CCCNC(=N)N)NC(=O)[C@H](CCCNC(=N)N)NC(=O)[C@H](CCCNC(=N)N)NC(=O)[C@H](CCCNC(=N)N)NC(=O)[C@H](CCCNC(=N)N)NC(=O)[C@@H](N)CCCNC(=N)N)C(=O)O", "note": "[Poly-arginine7]", "CC50": "> 100"},
      {"molecule": "CC(C)[C@H](NC(=O)[C@H](CCCCN)NC(=O)CNC(=O)CNC(=O)[C@H](CCC(N)=O)NC(=O)[C@H](CCCCN)NC(=O)CNC(=O)[C@H](CCCNC(=N)N)NC(=O)CNC(=O)[C@@H](N)CCCCN)C(=O)N[C@@H](CCCNC(=N)N)C(=O)N[C@@H](C)C(=O)N[C@@H](CCCCN)C(=O)N[C@@H](C)C(=O)N[C@@H](CCCCN)C(=O)N[C@H](C(=O)N[C@@H](CCCNC(=N)N)C(=O)N[C@@H](CO)C(=O)N[C@@H](CO)C(=O)O)[C@@H](C)O", "note": "[Parasin-I] (H-KGRGKQGGKVRAKAKTRSS-OH)", "CC50": "> 100"},
      {"molecule": "CC[C@H](C)[C@H](NC(=O)CN)C(=O)NCC(=O)N[C@@H](CCCCN)C(=O)N[C@@H](Cc1ccccc1)C(=O)N[C@@H](CC(C)C)C(=O)N[C@@H](Cc1c[nH]cn1)C(=O)N[C@@H](CO)C(=O)N[C@@H](C)C(=O)NCC(=O)N[C@@H](CCCCN)C(=O)N[C@@H](Cc1ccccc1)C(=O)NCC(=O)N[C@@H](CCCCN)C(=O)N[C@@H](C)C(=O)N[C@@H](Cc1ccccc1)C(=O)N[C@H](C(=O)NCC(=O)N[C@@H](CCC(=O)O)C(=O)N[C@H](C(=O)N[C@@H](CCSC)C(=O)N[C@@H](CCCCN)C(=O)N[C@@H](CO)C(=O)O)[C@@H](C)CC)C(C)C", "note": "[Magainin-I] (H-GIGKFLHSAGKFGKAFVGEIMKS-OH)", "CC50": "> 100"},
      {"molecule": "CC[C@H](C)[C@@H]1NC(=O)CNC(=O)[C@H](CCCNC(=N)N)NC(=O)[C@H](Cc2ccc(O)cc2)NC(=O)[C@@H]2CSSC[C@H](NC1=O)C(=O)N[C@@H](Cc1ccc(O)cc1)C(=O)N[C@@H](CCCNC(=N)N)C(=O)N[C@@H](CCCNC(=N)N)C(=O)N[C@H](C(=O)N[C@@H](CCCNC(=N)N)C(N)=O)CSSC[C@H](NC(=O)[C@H](Cc1c[nH]c3ccccc13)NC(=O)[C@@H](N)CCCCN)C(=O)N[C@@H](Cc1ccccc1)C(=O)N[C@@H](CCCNC(=N)N)C(=O)N[C@@H](C(C)C)C(=O)N2", "note": "[Tachyplesin-I] (H-KWCFRVCYRGICYRRCR-NH2; disulfide 3-16, 7-12)", "CC50": 100},
      {"molecule": "C[C@@H](O)[C@H](N)C(=O)N[C@@H](CCCCN)C(=O)N1CCC[C@H]1C(=O)N[C@@H](CCCNC(=N)N)C(=O)O", "note": "[Tuftsin] (H-TKPR-OH; N-terminus and C-terminus assumed)", "CC50": "> 100"}
    ]}
  ]
}
